In brackets after ≈: the same amount, converted by molar mass. Read-outs that look alike come from different tables or passages of the source.
Columns and labels:
[1] = type: physicochemical; settings: for Final pH of supernatant: water, RT
Source text: (§1) Crystalline maleate was recommended as a leading salt and further evaluated by kinetic solubility and physicochemical stability.

[2] = type: physicochemical; settings: for Final pH of supernatant: FaSSIF, RT
Source text: as §1

[3] = physchem; type: physicochemical; settings: fassif, thermodynamic from solid, Solubility (S)
[4] = target: cyclophilin A (Homo sapiens, UniProt P62937); settings: cited from earlier work
Sequence of cyclophilin A (P62937 whole entry, species assumed): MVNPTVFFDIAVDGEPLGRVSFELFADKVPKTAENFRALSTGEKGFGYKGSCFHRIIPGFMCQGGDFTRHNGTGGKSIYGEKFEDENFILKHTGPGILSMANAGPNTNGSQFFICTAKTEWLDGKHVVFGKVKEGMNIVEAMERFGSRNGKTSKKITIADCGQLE

[5] = system: calcineurin; settings: at concentrations up to 2 μM; cited from earlier work
[6] = system: cytochrome P450 1A2; settings: cited from earlier work
[7] = system: stimulated Jurkat cells; settings: cited from earlier work
[8] = system: stimulated human peripheral blood mononuclear cells; settings: cited from earlier work
[9] = system: hepatitis C virus (HCV); settings: cited from earlier work
[10] = system: hepatitis C virus (HCV); settings: cited from earlier work; remark: listed apart in the source
[11] = system: cytochrome P450 2B6; settings: cited from earlier work
[12] = system: cytochrome P450 3A4; settings: cited from earlier work
[13] = target: P-glycoprotein (Homo sapiens, UniProt P08183); settings: cited from earlier work
Sequence of P-glycoprotein (P08183 whole entry): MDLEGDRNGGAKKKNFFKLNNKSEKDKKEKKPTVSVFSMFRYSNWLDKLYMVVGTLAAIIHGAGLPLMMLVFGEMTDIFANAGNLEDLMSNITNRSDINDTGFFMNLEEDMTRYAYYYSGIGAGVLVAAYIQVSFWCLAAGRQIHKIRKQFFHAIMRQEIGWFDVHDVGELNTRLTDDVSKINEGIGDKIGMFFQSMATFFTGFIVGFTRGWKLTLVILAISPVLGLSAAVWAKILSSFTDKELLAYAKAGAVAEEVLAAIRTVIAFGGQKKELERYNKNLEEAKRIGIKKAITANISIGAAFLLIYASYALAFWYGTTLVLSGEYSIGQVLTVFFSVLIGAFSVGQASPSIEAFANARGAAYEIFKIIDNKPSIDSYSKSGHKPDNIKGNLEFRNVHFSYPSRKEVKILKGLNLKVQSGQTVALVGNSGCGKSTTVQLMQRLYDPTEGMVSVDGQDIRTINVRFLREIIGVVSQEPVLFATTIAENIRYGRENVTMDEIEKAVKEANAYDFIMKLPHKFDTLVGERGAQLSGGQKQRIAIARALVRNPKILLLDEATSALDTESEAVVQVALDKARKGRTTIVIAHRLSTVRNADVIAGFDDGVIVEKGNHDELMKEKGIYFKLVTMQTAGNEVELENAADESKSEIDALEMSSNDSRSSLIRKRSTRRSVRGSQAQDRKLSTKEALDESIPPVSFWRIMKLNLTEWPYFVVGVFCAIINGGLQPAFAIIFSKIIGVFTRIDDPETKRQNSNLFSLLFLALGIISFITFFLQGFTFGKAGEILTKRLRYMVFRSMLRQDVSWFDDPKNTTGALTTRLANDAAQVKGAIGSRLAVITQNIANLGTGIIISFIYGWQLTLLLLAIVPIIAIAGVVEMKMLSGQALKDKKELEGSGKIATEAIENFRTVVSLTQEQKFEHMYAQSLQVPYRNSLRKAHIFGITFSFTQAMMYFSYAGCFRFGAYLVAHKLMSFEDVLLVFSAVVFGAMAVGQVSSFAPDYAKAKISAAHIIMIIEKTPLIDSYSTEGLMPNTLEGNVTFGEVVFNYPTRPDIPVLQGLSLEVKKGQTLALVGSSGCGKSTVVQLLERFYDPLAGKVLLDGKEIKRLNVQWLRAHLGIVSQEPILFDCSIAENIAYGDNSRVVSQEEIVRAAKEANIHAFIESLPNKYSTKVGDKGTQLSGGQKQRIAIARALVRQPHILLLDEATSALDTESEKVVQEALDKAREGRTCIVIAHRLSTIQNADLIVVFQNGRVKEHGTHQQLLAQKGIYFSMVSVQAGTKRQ

[14] = in vivo, cited from earlier work
[15] = One-week physicochemical stability evaluation (HPLC purity); settings: for Purity (area%) / Purity of initial (%): open, one week
Experimental: Physicochemical stability of crystalline maleate was evaluated under 25° C./60% RH-open and 40° C./75% RH-open for one week.

Compound: C/C=C/C[C@@H](C)[C@@H](O)[C@H]1C(=O)N[C@@H](CC)C(=O)N(C)[C@H](SCCN(C)C)C(=O)N(C)[C@@H](CC(C)(C)O)C(=O)N[C@@H](C(C)C)C(=O)N(C)[C@@H](CC(C)C)C(=O)N[C@@H](C)C(=O)N[C@H](C)C(=O)N(C)[C@@H](CC(C)C)C(=O)N(C)[C@@H](CC(C)C)C(=O)N(C)[C@@H](C(C)C)C(=O)N1C [Freebase Type A]
- Solubility (S) ([1]; 2 h): 100 µg/mL (≈ 75.7 µM)
- Solubility (S) ([1]; 4 h): 100 µg/mL (≈ 75.7 µM)
- Solubility (S) ([1]; 6 h): 300 µg/mL (≈ 227 µM)
- Final pH of supernatant ([1]; 2 hrs): 6.7
- Final pH of supernatant ([1]; 4 hrs): 6.5
- Final pH of supernatant ([1]; 6 hrs): 6.6
- Final pH of supernatant ([2]; 2 hrs): 6.8
- Final pH of supernatant ([2]; 4 hrs): 6.8
- Final pH of supernatant ([2]; 6 hrs): 7.0
- solubility at 2 h [3]: 3700 µg/mL (≈ 2800 µM)
- solubility at 4 h [3]: 4700 µg/mL (≈ 3560 µM)
- solubility at 6 h [3]: 5600 µg/mL (≈ 4240 µM)

Compound: C/C=C/C[C@@H](C)[C@@H](O)[C@H]1C(=O)N[C@@H](CC)C(=O)N(C)[C@H](SCCN(C)C)C(=O)N(C)[C@@H](CC(C)(C)O)C(=O)N[C@@H](C(C)C)C(=O)N(C)[C@@H](CC(C)C)C(=O)N[C@@H](C)C(=O)N[C@H](C)C(=O)N(C)[C@@H](CC(C)C)C(=O)N(C)[C@@H](CC(C)C)C(=O)N(C)[C@@H](C(C)C)C(=O)N1C [Freebase amorphous]
- Final pH of supernatant ([1]; 2 hrs): 4.9
- Final pH of supernatant ([1]; 4 hrs): 4.7
- Final pH of supernatant ([1]; 6 hrs): 6.2
- Final pH of supernatant ([2]; 2 hrs): 6.9
- Final pH of supernatant ([2]; 4 hrs): 6.9
- Final pH of supernatant ([2]; 6 hrs): 7.0

Compound: C/C=C/C[C@@H](C)[C@@H](O)[C@H]1C(=O)N[C@@H](CC)C(=O)N(C)[C@H](SCCN(C)C)C(=O)N(C)[C@@H](CC(C)(C)O)C(=O)N[C@@H](C(C)C)C(=O)N(C)[C@@H](CC(C)C)C(=O)N[C@@H](C)C(=O)N[C@H](C)C(=O)N(C)[C@@H](CC(C)C)C(=O)N(C)[C@@H](CC(C)C)C(=O)N(C)[C@@H](C(C)C)C(=O)N1C [SCY-635, (3S,6S,9S,12R,15S,18S,21S,24S,27R,30S,33S)-27-((2-(dimethylamino)ethyl)thio)-30-ethyl-33-((1R,2R,E)-1-hydroxy-2-methylhex-4-en-1-yl)-24-(2-hydroxy-2-methylpropyl)-6,9,18-triisobutyl-3,21-diisopropyl-1,4,7,10,12,15,19,25,28-nonamethyl-1,4,7,10,13,16,19,22,25,28,31-undecaazacyclotritriacontan-2,5,8,11,14,17,20,23,26,29,32-undecaone]
- Inhibition of peptidyl prolyl isomerase activity of cyclophilin A [4]: at nanomolar concentrations
- Inhibition of calcineurin phosphatase activity [5]: no detectable inhibition
- Induction of cytochrome P450 1A2 [6]: did not induce
- Inhibition of interleukin-2 secretion compared with cyclosporine [7]: weaker inhibitor
- Inhibition of interleukin-2 secretion compared with cyclosporine [8]: weaker inhibitor
- Suppression of HCV replication in vitro [9]: potent suppression
- Antiviral activity in combination ([10]; with alpha interferon 2b): synergistic antiviral activity
- Antiviral activity in combination ([10]; with ribavirin): additive antiviral activity
- Induction of cytochrome P450 2B6 [11]: did not induce
- Induction of cytochrome P450 3A4 [12]: did not induce
- P-glycoprotein inhibition [13]: weak inhibitor
- P-glycoprotein substrate [13]: poor substrate
- Blood and liver concentrations of parent drug versus replicon 50% effective dose ([14]; po): exceeded the 50% effective dose
- Oral bioavailability [14]: orally bioavailable

Compound: Maleate
- Solubility compared with amorphous and crystalline freebase [1]: significant solubility improvement
- Final pH of supernatant ([1]; 6 hrs): 4.9
- Solubility compared with amorphous and crystalline freebase [2]: significant solubility improvement
- Final pH of supernatant ([2]; 6 hrs): 6.0
- Purity (area%) ([15]; 25° C./60% RH): 100.0 area%
- Purity of initial (%) ([15]; 25° C./60% RH): 100.0%
- Purity (area%) ([15]; 40° C./75% RH): 100.0 area%
- Purity of initial (%) ([15]; 40° C./75% RH): 100.0%
- Chemical stability ([15]; both 25° C./60% RH and 40° C./75% RH, at least one week): good chemical stability

From US11845809B2, “Maleate of SCY-635 and uses thereof in medicine” (priority 2018, dated 2023)
